pEC50: −log10 of the molar value.
Columns and labels:
[1] = test system: hypoxia-inducible endogenous VEGF expression in HeLa cells; test: Hypoxia-inducible endogenous VEGF expression, VEGF ELISA of conditioned media (dose-response EC50); type: cell-based
Summary of the method: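 HeLa cells were cultured 24-48 h under hypoxia (1% O2, 5% CO2, balance N2) with or without compound. Conditioned-media VEGF protein was measured by ELISA against a standard curve. EC50 and CC50 come from percentage-inhibition curves over, e.g., seven concentrations, with maximal inhibition set at 100%.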

[2] = test system: HT1080 cells (a human fibrosarcoma cell line); test: In vivo tumor growth PD model, tumor and plasma VEGF levels by human VEGF ELISA; parameters: species or system nude mice; conditions: 10 mg/kg 3×/week, vs vehicle, FIG. 5
Procedure: (§1) Compounds of the invention also show activity in the following pharmacodynamic model that assesses tumor VEGF levels. Briefly, HT1080 cells (a human fibrosarcoma cell line) may be implanted subcutaneously in nude mice. After seven days, mice may be administrated compounds orally at a desired dosage range, e.g., 200 mg/kg/day, for seven days. The tumors may then be excised from mice, weighed and homogenized in Tris-HCl buffer containing proteinase inhibitors. Moulder et al., Cancer Res. 61(24):8887-95 (2001). Tumor VEGF levels are subsequently measured using a human VEGF ELISA kit (R&D System). Protein concentrations of the homogenates are measured with a Bio-Rad Protein assay kit and tumor VEGF levels are normalized to the protein concentrations.
(§2) In similarly conducted experiments, compounds of the invention are shown to reduce lung cancer tumor growth (at a dosage of 3 mg/kg, twice a day, or 30 mg/kg, twice a day) (FIG. 1), Ewing's sarcoma and neuroblastoma tumor growth (at a dosage of 30 mg/kg, once a day) (FIG. 2), fibrosarcoma tumor growth (at a dosage of 10 mg/kg 3×/week) (FIG. 3), and human skin malignant melanoma (at a dosage of 10 mg/kg 5×/week) (FIG. 4) as compared to vehicle. Furthermore, the compounds of the invention are shown to reduce VEGF plasma and tumor levels in fibrosarcoma tumors as compared to vehicle (at a dosage of 10 mg/kg 3×/week) (FIG. 5).

lung cancer tumor = test: Lung cancer tumor growth in vivo; parameters: species or system nude mice; conditions: 3 mg/kg twice a day or 30 mg/kg twice a day, vs vehicle, FIG. 1
Procedure: as §1, §2

[3] = test system: Ewing's sarcoma (SK-NEP-1); test: Ewing's sarcoma tumor growth in vivo; parameters: species or system nude mice; conditions: 30 mg/kg once a day, vs vehicle, FIG. 2
Procedure: as §1
as §2, with “5). […]” for “5).”

[4] = test system: neuroblastoma (SY5Y and NGP); test: Neuroblastoma tumor growth in vivo; parameters: species or system nude mice; conditions: 30 mg/kg once a day, vs vehicle, FIG. 2
Procedure: as §1
as §2, with “5). […]” for “5).”

fibrosarcoma tumor = test: Fibrosarcoma tumor growth in vivo; parameters: species or system nude mice; conditions: 10 mg/kg 3×/week, vs vehicle, FIG. 3
Procedure: as §1, §2

[5] = test system: human skin malignant melanoma; test: Malignant melanoma tumor growth in vivo; parameters: species or system nude mice; conditions: 10 mg/kg 5×/week, vs vehicle, FIG. 4
Procedure: as §1, §2

colon cancer tumor = test: Colon cancer tumor growth in vivo, alone or with 5-FU; parameters: species or system nude mice; conditions: alone or in combination with 5-FU (fluorouracil), FIG. 6
human cervical carcinoma = test: Cervical cancer tumor growth in vivo, alone or with Taxol; parameters: species or system nude mice; conditions: alone or in combination with Taxol (paclitaxel), FIG. 7
tumor = test: Tumor growth in vivo, alone or with Avastin; parameters: species or system nude mice; conditions: alone or in combination with Avastin (bevacizumab), FIG. 8
Procedure: as §1, §2

VEGF = test: Tumor and plasma VEGF expression in vivo, alone or with Avastin; parameters: species or system nude mice; conditions: alone or in combination with Avastin, FIG. 9
Procedure: as §1, §2

[6] = test system: Ewing's sarcoma (SK-NEP-1) and neuroblastoma (SY5Y and NGP) tumors; test: Angiogenesis in excised tumors, immunochemistry with antibodies to Collagen IV; type: in vivo, mice; conditions: Collagen IV staining of excised tumors, FIG. 10
Description: The tumors excised from the mice can also be used in immunochemistry experiments to determine levels of angiogenesis. […] SK-NEP-1 cells were previously believed to be a useful Wilms tumor model.

VEGF mRNA = VEGF mRNA levels by Real-Time PCR under hypoxic conditions; type: cell-based, Human; conditions: FIG. 11
Procedure: Human solid tumor cells are treated with various concentrations of a compound of the present invention or a control under hypoxic conditions. Actinomycin D blocks transcription and is used as a control. Total RNA is isolated using the RNeasy kit (Qiagen, Inc., Valencia, Calif., USA) or an acid-guanidinium thiocyanate-phenol-chloroform based method (See Chomczynski, P. and Sacchi, N., Anal. Biochem. 162: 156 (1987), hereby incorporated by reference).
Concentration of total RNA can be determined using the RiboGreen® fluorescent dye (Molecular Probes, Inc., Eugene, Oreg., USA) with the VersaFluor Fluorometer System (BioRad, Hercules, Calif., USA). Quality and integrity of total RNA can be assessed on 1% formaldehyde-agarose gels. First-strand cDNA was synthesized using 1 μg of total RNA (DNase-treated) in a 20 μl reverse transcriptase reaction mixture (Leclerc G J, Barredo J C, Clin. Cancer Res. 2001, 7:942-951, which is hereby incorporated by reference). A region of the VEGF mRNA is amplified using PCR primers. The cDNA amplified fragment (approximately 300 basepairs) is cloned into a vector such as the pCR2.1-TOPO vector (Invitrogen, Carlsbad, Calif., USA) to generate a plasmid. […] Real-Time quantitations are performed using the BIO-RAD iCycler iQ system (BioRad, Hercules, Calif., USA). The fluorescence threshold value can be calculated using the iCycle iQ system software.

recombinant PDE5 = target: T1, recombinant PDE5 (Homo sapiens, UniProt O76074); test: PDE5 activity, High-Efficiency Fluorescence Polarization Assay (HEFP); type: biochemical; conditions: 45 minutes at room temperature, vs positive control Tadalafil, FIG. 12
T1 construct: purchased CalBioChem
Procedure: The compounds of the invention are tested to assess their affect on phosphodiesterase 5 (PDE5) activity. The affect on PDE5 activity is determined using the High-Efficiency Fluorescence Polarization Assay (HEFP) kit from Molecular Devices. The HEFP assay measures the activity of PDE-5 by using fluorescein-labeled derivatives of cGMP as a substrate. When hydrolyzed by PDE-5, fluorescein-labeled cGMP derivatives are able to bind to a binding reagent. The cGMP substrate:binding reagent complex results in a highly polarized fluorescent state.
After combining recombinant PDE5 (CalBioChem) and the cGMP substrate, the mixture is incubated at room temperature for 45 minutes in the presence or absence of compounds or a positive control (Tadalafil). The reaction is stopped upon addition of the binding reagent. Fluorescence polarization is determined on a Viewlux using a setting recommended by the manufacturer.

[7] = Homo sapiens, HeLa cells under hypoxic conditions
[8] = Homo sapiens, HeLa cells, hypoxic conditions (1% O2)
[9] = Homo sapiens, HeLa cells, hypoxic conditions (1% O2, 5% CO2)

| Compound | pEC50 [1, 7] | pEC50 [1, 8] | other results |
| --- | --- | --- | --- |
| COc1ccc(C2c3[nH]c4ccc(Cl)cc4c3CCN2C(=O)Oc2ccc(Cl)cc2)cc1 (stereo not drawn) [Compound 10] | > 8.10 | – | VEGF expression in a fibrosarcoma tumor (tumor VEGF levels) [2]: inhibition of VEGF expression; lung cancer tumor growth (lung cancer tumor): inhibition of lung cancer tumor growth; Ewing's sarcoma tumor growth [3]: inhibition; neuroblastoma tumor growth [4]: inhibition; fibrosarcoma tumor growth (fibrosarcoma tumor): inhibition of fibrosarcoma tumor growth; malignant melanoma tumor growth [5]: inhibition of malignant melanoma tumor growth; colon cancer tumor growth (colon cancer tumor): inhibition of colon cancer tumor growth; cervical cancer tumor growth (human cervical carcinoma): inhibition of cervical cancer tumor growth; tumor growth (tumor): inhibition of tumor growth; plasma VEGF expression (VEGF): inhibition; tumor VEGF expression (VEGF): inhibition; angiogenesis [6]: inhibition of angiogenesis; VEGF mRNA levels (VEGF mRNA): does not affect VEGF mRNA levels; PDE-5 activity (recombinant PDE5): do not inhibit the activity of PDE-5 |
| CC(C)c1ccc(C2c3[nH]c4ccc(Br)cc4c3CCN2c2ncccn2)cc1 (stereo not drawn) [Compound 25] | > 8.10 | – | PDE-5 activity (recombinant PDE5): do not inhibit the activity of PDE-5 |
| CCOC(=O)N1CCc2c([nH]c3ccc(Br)cc23)C1c1ccc(C(C)C)cc1 (stereo not drawn) [Compound 7] | > 8.10 | – | PDE-5 activity (recombinant PDE5): do not inhibit the activity of PDE-5 |
| CCOC(=O)N1CCc2c([nH]c3ccc(Cl)cc23)C1c1cccc(C(F)(F)F)c1 (stereo not drawn) [Compound 37] | > 8.10 | – | – |
| COc1ccc(OC(=O)N2CCc3c([nH]c4ccc(Cl)cc34)C2c2ccc(OCCCN(C)C)cc2)cc1 (stereo not drawn) [Compound 501] | – | 6.70 to 7.40 | – |
| FC(F)(F)c1cccc(C2NCCc3c2[nH]c2ccc(Cl)cc32)c1 (stereo not drawn) [Compound 299] | < 6.00 | – | – |
| CS(=O)(=O)c1ccc(C2c3[nH]c4ccc(Cl)cc4c3CCN2C(=O)Oc2ccc(Cl)cc2)cc1 (stereo not drawn) [Compound 360] | 7.40 to 8.10 | – | – |
| CCOC(=O)N1CCc2c([nH]c3ccc(Br)cc23)C1c1ccc(CN2CCN(C)CC2)cc1 (stereo not drawn) [Compound 474] | – | 6.70 to 7.40 | – |
| CC(C)OC(=O)N1CCc2c([nH]c3ccc(Cl)cc23)C1c1ccc(C#N)cc1 (stereo not drawn) [Compound 45] | > 8.10 | – | – |
| CCOC(=O)N1CCc2c([nH]c3ccc(Cl)cc23)C1CC(C)(C)C (stereo not drawn) [Compound 486] | – | 6.70 to 7.40 | – |
| O=C(Oc1ccc(F)cc1)N1CCc2c([nH]c3ccc(Cl)cc23)C1c1ccc(OCCCN2CCOCC2)cc1 (stereo not drawn) [Compound 989] | – | – | pEC50 [1, 9]: > 8.10 |
| ON1CCc2c([nH]c3ccc(Br)cc23)C1c1ccccc1 (stereo not drawn) [Compound 138] | 6.70 to 7.40 | – | – |
| Cc1cccc(C2NCCc3c2[nH]c2ccc(Cl)cc32)c1 (stereo not drawn) [Compound 286] | < 6.00 | – | – |
| CC(=O)Oc1ccc(C2c3[nH]c4ccc(Cl)cc4c3CCN2C(=O)Oc2ccc(Cl)cc2)cc1 (stereo not drawn) [Compound 463] | – | 7.40 to 8.10 | – |
| CC(C)c1ccc(C2c3[nH]c4ccc(Cl)cc4c3CCN2C(=O)Oc2ccc(Cl)cc2)cc1 (stereo not drawn) [Compound 348] | > 8.10 | – | – |
| COc1ccc(C2c3[nH]c4ccc(Cl)cc4c3CCN2C(=O)C(C)Oc2ccccc2)cc1 (stereo not drawn) [Compound 375] | 6.00 to 6.70 | – | – |
| CCOC(=O)N1CCc2c([nH]c3ccc(Cl)cc23)C1c1cccc(C(=O)NC)c1 (stereo not drawn) [Compound 524] | – | 6.00 to 6.70 | – |
| CN(C)CC(=O)Nc1ccc(C2c3[nH]c4ccc(Cl)cc4c3CCN2C(=O)Oc2ccc(Cl)cc2)cc1 (stereo not drawn) [Compound 491] | – | 6.70 to 7.40 | – |

| Compound | pEC50 [1, 7] | pEC50 [1, 8] | other results |
| --- | --- | --- | --- |
| O=C(Oc1ccc(F)cc1)N1CCc2c([nH]c3ccc(Cl)cc23)C1c1ccc(OCCCCCl)cc1 (stereo not drawn) [Compound 719] | – | > 8.10 | – |
| Cc1ccc(C2c3[nH]c4ccc(Br)cc4c3CCN2C(=O)Oc2ccc(Cl)cc2)cc1 (stereo not drawn) [Compound 353] | > 8.10 | – | – |
| COCCOCC(=O)N1CCc2c([nH]c3ccc(Br)cc23)C1c1cccc(Cl)c1 (stereo not drawn) [Compound 259] | < 6.00 | – | – |
| CCOC(=O)N1CCc2c([nH]c3ccc(Cl)cc23)C1c1ccc(S(C)(=O)=O)cc1 (stereo not drawn) [Compound 358] | 6.70 to 7.40 | – | – |
| CCOC(=O)N1CCc2c([nH]c3ccc(Br)cc23)C1c1ccc(CN2CCCN(C)CC2)cc1 (stereo not drawn) [Compound 541] | – | 6.00 to 6.70 | – |
| COc1ccc(C2c3[nH]c4ccc(Cl)cc4c3CCN2C(=O)Cc2ccccc2)cc1 (stereo not drawn) [Compound 368] | 6.00 to 6.70 | – | – |
| CC(C)c1ccc(C2c3[nH]c4ccc(Cl)cc4c3CCN2C(=O)OCCCl)cc1 (stereo not drawn) [Compound 18] | > 8.10 | – | – |
| Clc1ccc2[nH]c3c(c2c1)CCNC3c1ccc(Br)cc1 (stereo not drawn) [Compound 171] | 6.00 to 6.70 | – | – |
| CCNC(=O)N1CCc2c([nH]c3ccc(Cl)cc23)C1c1ccc(OCc2ccccc2)cc1 (stereo not drawn) [Compound 221] | 6.00 to 6.70 | – | – |
| O=C(Oc1ccc(F)cc1)N1CCc2c([nH]c3ccc(Cl)cc23)C1c1ccc(OCCCn2ccnc2)cc1 (stereo not drawn) [Compound 994] | – | – | pEC50 ([1]; HeLa cells, hypoxic conditions (1% O2, 5% CO2)): > 8.10 |
| CCCOC(=O)N1CCc2c([nH]c3ccc(Cl)cc23)C1c1ccccc1F (stereo not drawn) [Compound 97] | 7.40 to 8.10 | – | – |
| CCOC(=O)N1CCc2c([nH]c3ccc(Br)cc23)C1c1ccc(C(=O)N2CCN(CC)CC2)cc1 (stereo not drawn) [Compound 425] | – | > 8.10 | – |
| O=C(Oc1ccc(Cl)cc1)N1CCc2c([nH]c3ccc(Cl)cc23)C1c1ccc(OCC(O)CN2CCSCC2)cc1 (stereo not drawn) [Compound 923] | – | – | pEC50 [1, 9]: > 8.10 |
| COC(=O)NCC(O)COc1ccc(C2c3[nH]c4ccc(Cl)cc4c3CCN2C(=O)Oc2ccc(Cl)cc2)cc1 (stereo not drawn) [Compound 848] | – | – | pEC50 [1, 9]: > 8.10 |
| CCOC(=O)N1CCc2c([nH]c3ccc(Cl)cc23)C1c1ccc(OCCOCCOC)cc1 (stereo not drawn) [Compound 404] | – | > 8.10 | – |
| CCOC(=O)N1CCc2c([nH]c3ccc(Cl)cc23)C1C(C)Cc1ccc2c(c1)OCO2 (stereo not drawn) [Compound 553] | – | 6.00 to 6.70 | – |
| CCOC(=O)N1CCc2c([nH]c3ccc(Cl)cc23)C1c1ccc(O)cc1 (stereo not drawn) [Compound 128] | 6.70 to 7.40 | – | – |
